Measured values taken from patent US12378248B2 (The United States of America, as represented by the …, priority 2018, dated 2025).
Numbering of substitutions follows the chain as printed.

Legend:
[1] = Plasma protein binding at 10 μM; assay type: in vitro ADME, rat; details: unbound percent ± standard deviation
Description: (§1) Plasma protein binding in human plasma, mouse plasma, and rat plasma was determined. Verapamil and warfarin served as positive controls. The results are expressed as unbound percent±standard deviation.

wild-type C57BL/6J mice [2] = assay: Hypothermia (Tb by telemetry) after ip dosing; assay type: in vivo, mouse; details: for Tb (° C.): average from dosing to 60 min, mean±SD
Description: (§2) Compounds were dosed ip. Tb and activity were measured by telemetry and the averages from dosing to 60 min were calculated. […] Data are for the highest dose used and are mean±SD from 3 to 22 mice/group (usually 5-7). P values are unpaired t-Test vs vehicle-treated controls assayed simultaneously. Vehicle data are mean±SD from all (n=83) vehicle treated mice.

mA3AR [3] = biological target: T1, mA3AR (Mus musculus, UniProt Q61618); assay: Guanine nucleotide ([35S]GTPγS) binding assay; assay type: biochemical; details: effect of 10 μM test compound as % of 10 μM 16
T1 sequence (Q61618 1-319): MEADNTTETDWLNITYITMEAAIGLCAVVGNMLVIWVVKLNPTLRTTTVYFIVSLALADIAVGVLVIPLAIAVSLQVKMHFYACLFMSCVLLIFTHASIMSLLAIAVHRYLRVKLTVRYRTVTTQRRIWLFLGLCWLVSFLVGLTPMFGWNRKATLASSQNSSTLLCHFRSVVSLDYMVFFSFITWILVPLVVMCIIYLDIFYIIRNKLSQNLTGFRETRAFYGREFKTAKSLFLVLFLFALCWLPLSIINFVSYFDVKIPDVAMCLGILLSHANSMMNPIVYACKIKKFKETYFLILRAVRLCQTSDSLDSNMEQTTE
Description: (§3) cLogP was calculated using ChemDraw Professional, v. 16.0. Binding selectivity for mA1Ar is expressed in terms of fold, compared to mA3AR (Data from Table 1).

[4] = Plasma protein binding at 10 μM; assay type: in vitro ADME, human; details: unbound percent ± standard deviation
Description: as §1

[5] = Plasma protein binding at 10 μM; assay type: in vitro ADME, mouse; details: unbound percent ± standard deviation
Description: as §1

hA3AR = biological target: T2, hA3AR (Homo sapiens, UniProt P0DMS8); assay: Radioligand binding in membranes of CHO cells expressing hA3AR; details: read-out: A3AR % inhibition or Ki; for Ki: (h)
T2 construct: expressed in transfected cells; host or cells: CHO
T2 sequence (P0DMS8 1-318): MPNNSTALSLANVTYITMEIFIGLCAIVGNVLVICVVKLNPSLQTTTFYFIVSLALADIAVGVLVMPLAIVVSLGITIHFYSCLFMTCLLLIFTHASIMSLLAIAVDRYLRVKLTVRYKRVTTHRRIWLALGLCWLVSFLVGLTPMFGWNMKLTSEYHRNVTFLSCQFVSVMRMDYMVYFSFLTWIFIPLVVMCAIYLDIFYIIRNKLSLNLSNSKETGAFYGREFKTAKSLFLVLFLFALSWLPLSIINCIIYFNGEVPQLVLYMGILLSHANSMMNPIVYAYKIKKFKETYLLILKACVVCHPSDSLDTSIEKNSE

wild-type C57BL/6J mice [6] = assay: Locomotor activity by telemetry after ip dosing; assay type: in vivo, mouse; details: average from dosing to 60 min, mean±SD
Description: as §2

rA1AR = biological target: T3, rA1AR (Rattus norvegicus, UniProt P25099); assay: Adenosine receptor binding, rA1AR; details: (r), read-out: A1AR % inhibition or Ki (converted)
T3 sequence (P25099 1-326): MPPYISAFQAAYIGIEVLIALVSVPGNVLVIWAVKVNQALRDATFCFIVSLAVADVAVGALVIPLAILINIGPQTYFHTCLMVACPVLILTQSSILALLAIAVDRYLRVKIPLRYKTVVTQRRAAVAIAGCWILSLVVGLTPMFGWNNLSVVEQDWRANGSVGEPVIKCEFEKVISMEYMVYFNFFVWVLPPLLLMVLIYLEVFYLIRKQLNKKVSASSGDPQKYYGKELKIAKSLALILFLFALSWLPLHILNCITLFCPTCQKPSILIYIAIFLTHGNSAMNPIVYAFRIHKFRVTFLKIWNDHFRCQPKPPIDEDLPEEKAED

[7] = system: off-target receptors (PDSP); assay: Off-target interactions determined by the PDSP, whole screen; assay type: binding, human; details: no off-target interaction listed
hA1AR = biological target: T4, hA1AR (Homo sapiens, UniProt P30542); assay: Radioligand binding in membranes of CHO cells expressing hA1AR, [3H]N6-R-phenylisopropyladenosine; details: (h); Ki; read-out: A1AR % inhibition or Ki
T4 construct: expressed in transfected cells; host or cells: CHO
T4 sequence (P30542 1-326): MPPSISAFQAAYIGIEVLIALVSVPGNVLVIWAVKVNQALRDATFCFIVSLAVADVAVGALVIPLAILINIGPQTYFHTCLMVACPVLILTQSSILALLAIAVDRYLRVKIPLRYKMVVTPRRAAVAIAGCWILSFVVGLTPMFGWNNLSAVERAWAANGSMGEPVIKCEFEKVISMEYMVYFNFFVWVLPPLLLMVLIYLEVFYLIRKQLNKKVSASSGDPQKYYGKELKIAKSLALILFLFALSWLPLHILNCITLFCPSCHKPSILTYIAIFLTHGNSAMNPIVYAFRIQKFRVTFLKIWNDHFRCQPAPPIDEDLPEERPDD

hA2AAR = biological target: T5, hA2AAR (Homo sapiens, UniProt P29274); assay: Radioligand binding in membranes of HEK293 cells expressing hA2AAR; details: read-out: A2AAR % inhibition
T5 construct: expressed in transfected cells; host or cells: HEK293

mA1AR [8] = biological target: T6, mA1AR (Mus musculus, UniProt Q60612); assay: Guanine nucleotide ([35S]GTPγS) binding assay; assay type: biochemical
T6 sequence (Q60612 1-326): T3 sequence (P25099 1-326) with V151E, D155A, R157I, D316E, L319I, E325D
Description: as §3

mA2AAR = mA2AAR (Mus musculus, UniProt Q60613); assay: Adenosine receptor binding, mA2AAR; details: read-out: A2AAR % inhibition (converted)
mA1AR [9] = biological target: T6, mA1AR; assay: Adenosine receptor binding, mA1AR; details: for Ki: (m), read-out: A1AR % inhibition or Ki (converted)
mA3AR [10] = biological target: T1, mA3AR; assay: Adenosine receptor binding, mA3AR
sigma receptor σ2 = sigma receptor σ2 (UniProt Q5BJF2); assay: Off-target interaction determined by the PDSP; assay type: binding, human; details: read-out: Off-target, receptor (h, unless noted) (Ki, μM): σ2
serotonin receptor 5HT2C = biological target: T7, serotonin receptor 5HT2C (Homo sapiens, UniProt P28335); assay: Off-target interaction determined by the PDSP; assay type: binding; details: read-out: Off-target, receptor (h, unless noted) (Ki, μM): 5HT2C
T7 sequence (P28335 33-458): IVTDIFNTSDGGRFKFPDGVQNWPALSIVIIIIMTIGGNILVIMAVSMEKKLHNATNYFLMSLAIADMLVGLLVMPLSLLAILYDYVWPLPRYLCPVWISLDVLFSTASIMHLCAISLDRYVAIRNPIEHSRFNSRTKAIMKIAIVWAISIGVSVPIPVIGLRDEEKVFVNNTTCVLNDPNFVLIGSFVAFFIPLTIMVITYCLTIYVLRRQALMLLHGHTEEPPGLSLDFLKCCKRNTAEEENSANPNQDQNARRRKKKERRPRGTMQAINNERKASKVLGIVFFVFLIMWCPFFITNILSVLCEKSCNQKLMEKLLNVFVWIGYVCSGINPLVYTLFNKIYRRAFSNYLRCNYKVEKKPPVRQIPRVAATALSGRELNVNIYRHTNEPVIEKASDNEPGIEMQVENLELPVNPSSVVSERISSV

serotonin receptor 5HT2B = serotonin receptor 5HT2B (Homo sapiens, UniProt P41595); assay: Off-target interaction determined by the PDSP; assay type: binding; details: read-out: Off-target, receptor (h, unless noted) (Ki, μM): 5HT2B
[11] = biological target: dopamine transporter (DAT) (Homo sapiens, UniProt Q01959); assay: Off-target interaction determined by the PDSP; assay type: binding; details: read-out: Off-target, receptor (h, unless noted) (Ki, μM): DAT
[12] = Stability in simulated gastric fluid; assay type: physicochemical; details: pH 1.60, 37° C., after 120 min
mice = assay: Tail suspension test, immobility time; assay type: in vivo, mouse; details: 3, 10 or 20 mg/kg i.p.
Description: 1 hour after administration of compounds, the mice were individually suspended by their tails for 6 minutes, and the average amount of time the mice were immobile was determined. […]

T5 sequence (P29274 whole entry): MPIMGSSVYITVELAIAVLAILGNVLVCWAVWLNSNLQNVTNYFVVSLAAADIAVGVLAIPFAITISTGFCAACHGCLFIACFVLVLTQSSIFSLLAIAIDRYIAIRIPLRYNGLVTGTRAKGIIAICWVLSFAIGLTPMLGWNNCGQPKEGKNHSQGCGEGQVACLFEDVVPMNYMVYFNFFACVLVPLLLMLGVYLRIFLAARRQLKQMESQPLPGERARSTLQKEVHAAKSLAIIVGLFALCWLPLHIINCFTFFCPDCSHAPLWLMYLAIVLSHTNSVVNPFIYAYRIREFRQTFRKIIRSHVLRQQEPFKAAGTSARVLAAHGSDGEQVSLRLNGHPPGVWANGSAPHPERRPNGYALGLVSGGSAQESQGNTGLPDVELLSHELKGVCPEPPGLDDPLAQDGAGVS
Chain of mA2AAR (Q60613 whole entry): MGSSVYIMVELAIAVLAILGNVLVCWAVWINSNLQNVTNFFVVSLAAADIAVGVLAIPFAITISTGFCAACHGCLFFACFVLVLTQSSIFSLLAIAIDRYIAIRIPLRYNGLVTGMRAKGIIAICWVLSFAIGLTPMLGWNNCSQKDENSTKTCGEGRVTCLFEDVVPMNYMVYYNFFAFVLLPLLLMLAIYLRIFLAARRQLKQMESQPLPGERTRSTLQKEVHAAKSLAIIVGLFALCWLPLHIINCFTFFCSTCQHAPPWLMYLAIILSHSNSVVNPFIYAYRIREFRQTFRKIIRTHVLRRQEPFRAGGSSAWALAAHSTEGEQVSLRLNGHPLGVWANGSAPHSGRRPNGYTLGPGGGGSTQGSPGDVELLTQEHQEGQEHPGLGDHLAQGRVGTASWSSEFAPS
Chain of serotonin receptor 5HT2B (P41595 whole entry): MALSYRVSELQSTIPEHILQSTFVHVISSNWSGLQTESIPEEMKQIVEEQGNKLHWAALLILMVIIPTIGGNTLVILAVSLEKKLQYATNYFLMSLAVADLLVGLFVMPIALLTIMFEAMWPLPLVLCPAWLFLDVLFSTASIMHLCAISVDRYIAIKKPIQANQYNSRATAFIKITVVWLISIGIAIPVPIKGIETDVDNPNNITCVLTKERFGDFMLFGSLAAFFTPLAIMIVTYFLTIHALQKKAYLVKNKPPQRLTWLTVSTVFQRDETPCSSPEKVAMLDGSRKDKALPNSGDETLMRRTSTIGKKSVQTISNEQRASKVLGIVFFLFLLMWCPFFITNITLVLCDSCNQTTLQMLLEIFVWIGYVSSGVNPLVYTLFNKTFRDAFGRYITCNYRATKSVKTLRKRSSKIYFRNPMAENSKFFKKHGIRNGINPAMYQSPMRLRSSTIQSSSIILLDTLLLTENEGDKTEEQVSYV
Chain of dopamine transporter (DAT) (Q01959 whole entry): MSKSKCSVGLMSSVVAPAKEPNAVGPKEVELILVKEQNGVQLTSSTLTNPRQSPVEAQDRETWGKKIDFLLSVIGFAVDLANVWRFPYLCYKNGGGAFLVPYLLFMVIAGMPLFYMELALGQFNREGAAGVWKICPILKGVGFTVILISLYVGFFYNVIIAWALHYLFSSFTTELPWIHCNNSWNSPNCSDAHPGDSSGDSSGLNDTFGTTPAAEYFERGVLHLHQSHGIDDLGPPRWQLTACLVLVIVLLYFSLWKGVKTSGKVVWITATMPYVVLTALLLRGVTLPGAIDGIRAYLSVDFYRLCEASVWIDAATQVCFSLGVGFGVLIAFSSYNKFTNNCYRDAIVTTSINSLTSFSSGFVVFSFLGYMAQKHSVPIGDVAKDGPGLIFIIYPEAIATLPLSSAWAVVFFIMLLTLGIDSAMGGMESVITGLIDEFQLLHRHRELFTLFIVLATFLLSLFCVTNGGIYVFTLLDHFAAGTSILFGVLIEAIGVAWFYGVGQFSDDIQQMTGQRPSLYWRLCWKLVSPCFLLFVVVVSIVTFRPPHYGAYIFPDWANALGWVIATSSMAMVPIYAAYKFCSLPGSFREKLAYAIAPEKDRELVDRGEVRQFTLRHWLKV

| Structure (SMILES) | Off-target, receptor (h, unless noted) [7] | rat, % free [1] [%] | Emax at 10 µM (mA3AR [3]) [%] | human, % free [4] [%] | mouse, % free [5] [%] | Ki (hA3AR) [nM] | Ki (hA1AR) [nM] | inhibition at 10 µM (hA2AAR) [%] | other results |
| --- | --- | --- | --- | --- | --- | --- | --- | --- | --- |
| OC[C@H]1O[C@@H](n2cnc3c(NC(C4CCC4)C4CCC4)ncnc32)[C@H](O)C1O (stereo in doubt) [Compound 9, (2R,3R,4R,5R)-2-(6-((Dicyclobutylmethyl)amino)-9H-purin-9-yl)-5-(hydroxymethyl)tetrahydrofuran-3,4-diol] |  | 14.6 ± 0.01 | 70 ± 9 | 6.05 ± 1.60 | 20.6 ± 1.2 | 10600 |  |  | ARs causing hypothermia (wild-type C57BL/6J mice [2]; 3 mg/kg ip, WT and AR-KO mice (FIG. 2)): A1AR selective; Tb (° C.) (wild-type C57BL/6J mice [2]; 3 mg/kg ip): 33.0 ± 0.7 °C; Activity (counts) (wild-type C57BL/6J mice [6]; 3 mg/kg ip): 6.6 ± 2.3 counts |
| O[C@H]1[C@H](n2cnc3c(N[C@H]4C[C@H]5CC[C@@H]4C5)nc(Cl)nc32)[C@H]2C[C@@]2(CCl)[C@H]1O [Compound 31, (1S,2R,3S,4R,5S)-4-(6-(((1R,2S,4S)-Bicyclo[2.2.1]heptan-2-yl)amino)-2-chloro-9H-purin-9-yl)-1-(chloromethyl)bicyclo[3.1.0]hexane-2,3-diol] | none | 2.53 ± 0.45 | 50 ± 11 | 4.04 ± 0.60 | 2.95 ± 0.84 | 456 ± 201 | 44.8 ± 1.3 | 54 ± 8 | Tb (° C.) (wild-type C57BL/6J mice [2]; 3 mg/kg ip): 36.6 ± 0.5 °C; Emax at 10 µM (mA1AR [8]): 123 ± 16%; inhibition at 10 µM (mA2AAR): 15%; Ki (mA1AR [9]): 1.86 nM; Binding selectivity for mA1AR (mA1AR [9]; compared to mA3AR): (270) fold; Ki (mA3AR [10]; (m), Ki, read-out: A3AR % inhibition or Ki (converted)): 503 nM; Activity (counts) (wild-type C57BL/6J mice [6]; 3 mg/kg ip): 16.8 ± 3.6 counts |
| NC(=O)c1ncn([C@H]2[C@H](O)[C@H](O)[C@]3(CO)C[C@H]23)n1 [Compound 40, 1-((1S,2R,3S,4R,5R)-3,4-Dihydroxy-5-(hydroxymethyl)bicyclo[3.1.0]hexan-2-yl)-1H-1,2,4-triazole-3-carboxamide] |  | > 80 | 31 ± 3 | > 80 | > 80 |  | 495 ± 35 | 11 ± 3 | Tb (° C.) (wild-type C57BL/6J mice [2]; 10 mg/kg ip): 35.7 ± 0.7 °C; Ki (sigma receptor σ2): 2.09 µM; Ki (serotonin receptor 5HT2C): 2.35 µM; selectivity ratio (mA1AR [9]): 400; Ki (mA1AR [9]): 25.2 ± 2.8 nM; inhibition at 10 µM (hA3AR): 41 ± 6%; Ki (serotonin receptor 5HT2B): 1.91 µM; Ki [11]: 6.61 µM; inhibition at 10 µM (mA3AR [10]; read-out: A3AR % inhibition or Ki): 47 ± 2%; Activity (counts) (wild-type C57BL/6J mice [6]; 10 mg/kg ip): 19.1 ± 5.3 counts |
| O[C@@H]1[C@H](O)[C@@H]2C[C@@H]2[C@H]1n1cnc2c(NC(C3CC3)C3CC3)nc(Cl)nc21 [MRS5474, reference compound] |  |  |  |  |  |  |  |  | initial amount present in simulated gastric fluid [12]: 51%; average immobility times versus the control group of mice (mice; 1 hour after administration): lower than the average immobility times exhibited by the control group of mice; average immobility times versus mice treated with fluoxetine (mice; fluoxetine 10 mg/kg): approximately twice longer |

Second part, led by results:

| Off-target, receptor (h, unless noted) [7] | Structure (SMILES) | rat, % free [1] [%] | Emax at 10 µM (mA3AR [3]) [%] | human, % free [4] [%] | mouse, % free [5] [%] | Ki (hA3AR) [nM] | Ki (hA1AR) [nM] | inhibition at 10 µM (hA2AAR) [%] | other results |
| --- | --- | --- | --- | --- | --- | --- | --- | --- | --- |
| none | CNC(=O)[C@H]1O[C@@H](n2cnc3c(N)ncnc32)[C@H](O)[C@@H]1O [Compound 15, reference compound] |  |  |  |  | 24.4 | 36.7 |  | Ki (rA1AR): 84 nM; Ki (hA2AAR; (h), values without % sign (Ki)): 466 ± 95 nM |
| none | Nc1nc(Cl)nc2c1ncn2[C@H]1[C@H](O)[C@H](O)[C@]2(CO)C[C@H]12 [Compound 21] |  |  |  |  |  |  |  | Ki (rA1AR): 273 nM |
| none | OC[C@@]12C[C@@H]1[C@@H](n1cnc3c(N[C@H]4C[C@H]5CC[C@@H]4C5)nc(Cl)cc31)[C@H](O)[C@@H]2O [Compound 30, (1R,2R,3S,4R,5S)-4-(4-(((1R,2S,4S)-Bicyclo[2.2.1]heptan-2-yl)amino)-6-chloro-1H-imidazo[4,5-c]pyridin-1-yl)-1-(hydroxymethyl)bicyclo[3.1.0]hexane-2,3-diol] |  |  |  |  | 145 ± 74 | 240 ± 19 | 29 ± 13 |  |
